In PubChem BioAssay (NCI):
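96-well plates; 48 h exposure; 5 concentrations. Endpoints by linear interpolation between flanking doses. Not reached: highest tested concentration assigned. TGI denotes the concentration required for complete inhibition of growth.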

System: COLO 205 colon
Test: growth of human tumour cells (NCI), 48 h

First: CC(=O)c1c(-c2ccc(Cl)cc2)c(-c2ccc(Cl)cc2)n[nH]c1=O
Second: CC(=O)C(C(=O)c1ccc(C)cc1)[C@@H]1OC(C)(C)O[C@@H]1[C@H]1COC(C)(C)O1 (stereo partly specified)
The TGI of the first is higher: over 100 µM for the first, 39.6 µM for the second.

`CC12CCCC(O)C1CCC1=CC3(CCC12)SCCS3` (stereo unspecified) and `CCCCNC(=S)Nc1nc(C(=O)NNC(=S)NCC)cs1` cannot be ordered by TGI: over 10 µM for the first, over 100 µM for the second.

System: U251 CNS
Test: growth of human tumour cells (NCI), 48 h

Compared with `COC(=O)C1=CC2C(=O)c3ccccc3C1(c1ccccc1)N2C1CCCCC1` (stereo unspecified), `O=C(O)CC1OCC=C2CN3CCC45c6ccccc6NC4C1C2CC35` (stereo unspecified) is higher in TGI: 43.7 µM for the first, over 100 µM for the second.

Compared with `C=C(C)C1CC=C(C)C(=O)C1` (stereo unspecified), `CC(=O)C(C(=O)c1ccc(C)cc1)[C@@H]1OC(C)(C)O[C@@H]1[C@H]1COC(C)(C)O1` (stereo partly specified) is lower in TGI: over 100 µM for the first, 18.5 µM for the second.

`CC(=O)c1c(-c2ccc(Cl)cc2)c(-c2ccc(Cl)cc2)n[nH]c1=O` and `CCCCNC(=S)Nc1nc(C(=O)NNC(=S)NCC)cs1` cannot be ordered by TGI: over 100 µM for the first, over 100 µM for the second.

`CC12CCCC(O)C1CCC1=CC3(CCC12)SCCS3` (stereo unspecified) was tested, and the TGI was over 10 µM.

System: CCRF-CEM leukemia
Test: growth of human tumour cells (NCI), 48 h

`COC(=O)C1=CC2C(=O)c3ccccc3C1(c1ccccc1)N2C1CCCCC1` (stereo unspecified) and `O=C(O)CC1OCC=C2CN3CCC45c6ccccc6NC4C1C2CC35` (stereo unspecified) cannot be ordered by TGI: over 100 µM for the first, over 100 µM for the second.

`C=C(C)C1CC=C(C)C(=O)C1` (stereo unspecified) and `CC(=O)C(C(=O)c1ccc(C)cc1)[C@@H]1OC(C)(C)O[C@@H]1[C@H]1COC(C)(C)O1` (stereo partly specified) cannot be ordered by TGI: over 100 µM for the first, over 36.2 µM for the second.

`N#Cc1ccc(NC(=NCC(=O)O)Nc2cccc3ccccc23)cc1` and `CC(=O)c1c(-c2ccc(Cl)cc2)c(-c2ccc(Cl)cc2)n[nH]c1=O` cannot be ordered by TGI: over 10 µM for the first, over 100 µM for the second.

`CC12CCCC(O)C1CCC1=CC3(CCC12)SCCS3` (stereo unspecified) and `CCCCNC(=S)Nc1nc(C(=O)NNC(=S)NCC)cs1` cannot be ordered by TGI: over 10 µM for the first, over 100 µM for the second.

System: HL-60(TB) leukemia
Test: growth of human tumour cells (NCI), 48 h

`COC(=O)C1=CC2C(=O)c3ccccc3C1(c1ccccc1)N2C1CCCCC1` (stereo unspecified) and `O=C(O)CC1OCC=C2CN3CCC45c6ccccc6NC4C1C2CC35` (stereo unspecified) cannot be ordered by TGI: over 100 µM for the first, over 100 µM for the second.

Going from `C=C(C)C1CC=C(C)C(=O)C1` (stereo unspecified) to `CC(=O)C(C(=O)c1ccc(C)cc1)[C@@H]1OC(C)(C)O[C@@H]1[C@H]1COC(C)(C)O1` (stereo partly specified), the TGI falls from over 100 µM to 25.1 µM.

`N#Cc1ccc(NC(=NCC(=O)O)Nc2cccc3ccccc23)cc1` and `CC(=O)c1c(-c2ccc(Cl)cc2)c(-c2ccc(Cl)cc2)n[nH]c1=O` cannot be ordered by TGI: over 10 µM for the first, 68.8 µM for the second.

System: SK-OV-3 ovarian
Test: growth of human tumour cells (NCI), 48 h

`COC(=O)C1=CC2C(=O)c3ccccc3C1(c1ccccc1)N2C1CCCCC1` (stereo unspecified) and `O=C(O)CC1OCC=C2CN3CCC45c6ccccc6NC4C1C2CC35` (stereo unspecified) cannot be ordered by TGI: over 100 µM for the first, over 100 µM for the second.

`N#Cc1ccc(NC(=NCC(=O)O)Nc2cccc3ccccc23)cc1` and `CC(=O)c1c(-c2ccc(Cl)cc2)c(-c2ccc(Cl)cc2)n[nH]c1=O` cannot be ordered by TGI: over 10 µM for the first, over 100 µM for the second.

`CC(=O)C(C(=O)c1ccc(C)cc1)[C@@H]1OC(C)(C)O[C@@H]1[C@H]1COC(C)(C)O1` (stereo partly specified) and `CC12CCCC(O)C1CCC1=CC3(CCC12)SCCS3` (stereo unspecified) cannot be ordered by TGI: over 100 µM for the first, over 10 µM for the second.

`CCCCNC(=S)Nc1nc(C(=O)NNC(=S)NCC)cs1` showed a TGI of over 100 µM.

System: LOX IMVI melanoma
Test: growth of human tumour cells (NCI), 48 h

First: COC(=O)C1=CC2C(=O)c3ccccc3C1(c1ccccc1)N2C1CCCCC1 (stereo unspecified)
Second: O=C(O)CC1OCC=C2CN3CCC45c6ccccc6NC4C1C2CC35 (stereo unspecified)
The TGI of the first is lower: 52.3 µM for the first, over 100 µM for the second.

Compared with `C=C(C)C1CC=C(C)C(=O)C1` (stereo unspecified), `CC(=O)C(C(=O)c1ccc(C)cc1)[C@@H]1OC(C)(C)O[C@@H]1[C@H]1COC(C)(C)O1` (stereo partly specified) is lower in TGI: over 100 µM for the first, 21.8 µM for the second.

First: CC(=O)c1c(-c2ccc(Cl)cc2)c(-c2ccc(Cl)cc2)n[nH]c1=O
Second: CCCCNC(=S)Nc1nc(C(=O)NNC(=S)NCC)cs1
The TGI of the first is lower: 73.9 µM for the first, over 100 µM for the second.

`CC12CCCC(O)C1CCC1=CC3(CCC12)SCCS3` (stereo unspecified) showed a TGI of over 10 µM.

System: IGROV1 ovarian
Test: growth of human tumour cells (NCI), 48 h

`COC(=O)C1=CC2C(=O)c3ccccc3C1(c1ccccc1)N2C1CCCCC1` (stereo unspecified) and `O=C(O)CC1OCC=C2CN3CCC45c6ccccc6NC4C1C2CC35` (stereo unspecified) cannot be ordered by TGI: over 100 µM for the first, over 100 µM for the second.

`C=C(C)C1CC=C(C)C(=O)C1` (stereo unspecified) and `CC(=O)C(C(=O)c1ccc(C)cc1)[C@@H]1OC(C)(C)O[C@@H]1[C@H]1COC(C)(C)O1` (stereo partly specified) cannot be ordered by TGI: over 100 µM for the first, over 74.8 µM for the second.

`N#Cc1ccc(NC(=NCC(=O)O)Nc2cccc3ccccc23)cc1` and `CC(=O)c1c(-c2ccc(Cl)cc2)c(-c2ccc(Cl)cc2)n[nH]c1=O` cannot be ordered by TGI: over 10 µM for the first, over 100 µM for the second.

`CC12CCCC(O)C1CCC1=CC3(CCC12)SCCS3` (stereo unspecified) and `CCCCNC(=S)Nc1nc(C(=O)NNC(=S)NCC)cs1` cannot be ordered by TGI: over 10 µM for the first, over 100 µM for the second.

System: SK-MEL-2 melanoma
Test: growth of human tumour cells (NCI), 48 h

Going from `COC(=O)C1=CC2C(=O)c3ccccc3C1(c1ccccc1)N2C1CCCCC1` (stereo unspecified) to `CC(=O)c1c(-c2ccc(Cl)cc2)c(-c2ccc(Cl)cc2)n[nH]c1=O`, the TGI rises from 29.1 µM to 81.3 µM (2.8-fold).

`C=C(C)C1CC=C(C)C(=O)C1` (stereo unspecified) and `CC(=O)C(C(=O)c1ccc(C)cc1)[C@@H]1OC(C)(C)O[C@@H]1[C@H]1COC(C)(C)O1` (stereo partly specified) cannot be ordered by TGI: over 100 µM for the first, over 23.2 µM for the second.
